# Test results: US20030166653A1, “Novel form of (r)-n-[5-methyl-8-(4-methylpiperazin-1-yl)-1,2,3,4-tetrahydro-2-naphthyl]-4-morpholinobenzamide” (priority 2003, published 2003)
# How the values were obtained:
# Format in all cases: physicochemical
# [1] = Stability of solution in 0.1 M HCl, pH 1.1, HPLC assay
# Description: (§1) The stability of [5-Methyl-8-(4-methylpiperazin-1-yl)-1,2,3,4-tetrahydro-2-naphtyl]-4-morpholinobenzamide(=“Base” in tables below) and (R)-N-[5-methyl-8-(4-methylpiperazin-1-yl)-1,2,3,4-tetrahydro-2-naphtyl]-4-morpholinobenzamide monohydrobromide Form A (=“Form A” in tables below), as bulk drug substance and in solutions at different pH levels after exposure to daylight and at elevated temperatures, has been studied. Three solutions were made from each batch of drug substance. One solution in pure water, one in 0.1 mM HCl (pH 4.1) and one in 0.1 M HCl (pH 1.1). The content of [5-Methyl-8-(4-methylpiperazin-1-yl)-1,2,3,4-tetrahydro-2-naphtyl]-4-morpholinobenzamide (=Base) was determined by HPLC, all results are calculated as the base.
# [2] = Solubility in water by HPLC-analysis; conditions: as the free base by HPLC-analysis
# [3] = Stability of solution in 0.1 mM HCl, pH 4.1, HPLC assay
# Description: as §1
# [4] = Stability in water solutions (pH not adjusted), HPLC assay
# Description: as §1
# [5] = Stability of bulk drug substance (HPLC purity) in daylight and at 90° C.; conditions: for HPLC Purity (100% - related substances): bulk
# Method: The stability of [5-Methyl-8-(4-methylpiperazin-1-yl)-1,2,3,4-tetrahydro-2-naphtyl]-4-morpholinobenzamide(=“Base” in tables below) and (R)-N-[5-methyl-8-(4-methylpiperazin-1-yl)-1,2,3,4-tetrahydro-2-naphtyl]-4-morpholinobenzamide monohydrobromide Form A (=“Form A” in tables below), as bulk drug substance and in solutions at different pH levels after exposure to daylight and at elevated temperatures, has been studied. The bulk substances are very stable, both in daylight and at 90° C. There are no significant differences between the HPLC purity of [5-Methyl-8-(4-methylpiperazin-1-yl)-1,2,3,4-tetrahydro-2-naphtyl]-4-morpholinobenzamide (=Base) and (R)-N-[5-methyl-8-(4-methylpiperazin-1-yl)-1,2,3,4-tetrahydro-2-naphtyl]-4-morpholinobenzamide monohydrobromide Form A (=Form A) at the tested conditions.
# [6] = daylight RT, 14 days, % of start
# [7] = daylight RT, 23 days, % of start
smiles,measurement,setting,value
"Cc1ccc(N2CCN(C)CC2)c2c1CCC(NC(=O)c1ccc(N3CCOCC3)cc1)C2 (stereo not shown) [Base, [5-Methyl-8-(4-methylpiperazin-1-yl)-1,2,3,4-tetrahydro-2-naphtyl]-4-morpholinobenzamide]","Solution in 0.1 M HCl, pH 1.1, assay","[1]; 5° C., 8 days, % of start",99%
same,"Solution in 0.1 M HCl, pH 1.1, assay","[1]; 5° C., 14 days, % of start",100%
same,"Solution in 0.1 M HCl, pH 1.1, assay","[1]; 5° C., 23 days, % of start",97%
same,"Solution in 0.1 M HCl, pH 1.1, assay","[1]; 5° C., Start",0.479 mg base/ml
same,"Solution in 0.1 M HCl, pH 1.1, assay","[1]; 5° C., Start, % of start",(100%)
same,"Solution in 0.1 M HCl, pH 1.1, assay","[1]; 60° C., 2 days, % of start",98%
same,"Solution in 0.1 M HCl, pH 1.1, assay","[1]; 60° C., 8 days, % of start",96%
same,"Solution in 0.1 M HCl, pH 1.1, assay","[1]; 60° C., 14 days, % of start",91%
same,"Solution in 0.1 M HCl, pH 1.1, assay","[1]; 60° C., 23 days, % of start",83%
same,"Solution in 0.1 M HCl, pH 1.1, assay","[1]; 60° C., Start",0.479 mg base/ml
same,"Solution in 0.1 M HCl, pH 1.1, assay","[1]; 60° C., Start, % of start",(100%)
same,"Solution in 0.1 M HCl, pH 1.1, assay","[1]; Dark RT, 8 days, % of start",100%
same,"Solution in 0.1 M HCl, pH 1.1, assay","[1]; Dark RT, 14 days, % of start",100%
same,"Solution in 0.1 M HCl, pH 1.1, assay","[1]; Dark RT, 23 days, % of start",98%
same,"Solution in 0.1 M HCl, pH 1.1, assay","[1]; Dark RT, Start",0.479 mg base/ml
same,"Solution in 0.1 M HCl, pH 1.1, assay","[1]; Dark RT, Start, % of start",(100%)
same,"Solution in 0.1 M HCl, pH 1.1, assay",[1]; [6],100%
same,"Solution in 0.1 M HCl, pH 1.1, assay",[1]; [7],98%
same,"Solution in 0.1 M HCl, pH 1.1, assay","[1]; daylight RT, Start",0.479 mg base/ml
same,"Solution in 0.1 M HCl, pH 1.1, assay","[1]; daylight RT, Start, % of start",(100%)
same,"stability in solution, comparison in words","[1]; pH 1.1, 60° C.",less stable than Form A
same,stability in solution in words,"[1]; pH 1.1, except at 60° C.",good
same,solubility in water,[2],34 µg/mL
same,"Solution in 0.1 mM HCl, pH 4.1, assay","[3]; 5° C., 8 days, % of start",100%
same,"Solution in 0.1 mM HCl, pH 4.1, assay","[3]; 5° C., 14 days, % of start",99%
same,"Solution in 0.1 mM HCl, pH 4.1, assay","[3]; 5° C., 23 days, % of start",99%
same,"Solution in 0.1 mM HCl, pH 4.1, assay","[3]; 5° C., Start",0.0443 mg base/ml
same,"Solution in 0.1 mM HCl, pH 4.1, assay","[3]; 5° C., Start, % of start",(100%)
same,"Solution in 0.1 mM HCl, pH 4.1, assay","[3]; 60° C., 2 days, % of start",96%
same,"Solution in 0.1 mM HCl, pH 4.1, assay","[3]; 60° C., 8 days, % of start",93%
same,"Solution in 0.1 mM HCl, pH 4.1, assay","[3]; 60° C., 14 days, % of start",67%
same,"Solution in 0.1 mM HCl, pH 4.1, assay","[3]; 60° C., 23 days, % of start",57%
same,"Solution in 0.1 mM HCl, pH 4.1, assay","[3]; 60° C., Start",0.0443 mg base/ml
same,"Solution in 0.1 mM HCl, pH 4.1, assay","[3]; 60° C., Start, % of start",(100%)
same,"Solution in 0.1 mM HCl, pH 4.1, assay","[3]; Dark RT, 8 days, % of start",99%
same,"Solution in 0.1 mM HCl, pH 4.1, assay","[3]; Dark RT, 14 days, % of start",98%
same,"Solution in 0.1 mM HCl, pH 4.1, assay","[3]; Dark RT, 23 days, % of start",97%
same,"Solution in 0.1 mM HCl, pH 4.1, assay","[3]; Dark RT, Start",0.0443 mg base/ml
same,"Solution in 0.1 mM HCl, pH 4.1, assay","[3]; Dark RT, Start, % of start",(100%)
same,"Solution in 0.1 mM HCl, pH 4.1, assay",[3]; [6],98%
same,"Solution in 0.1 mM HCl, pH 4.1, assay",[3]; [7],98%
same,"Solution in 0.1 mM HCl, pH 4.1, assay","[3]; daylight RT, Start",0.0443 mg base/ml
same,"Solution in 0.1 mM HCl, pH 4.1, assay","[3]; daylight RT, Start, % of start",(100%)
same,"stability in solution, comparison in words","[3]; pH 4.1, 60° C. (more pronounced than at pH 1.1)",less stable than Form A
same,stability in solution in words,"[3]; pH 4.1, except at 60° C.",good
same,"Stability in water solutions, assay","[4]; 5° C., 8 days, % of start",101%
same,"Stability in water solutions, assay","[4]; 5° C., 14 days, % of start",101%
same,"Stability in water solutions, assay","[4]; 5° C., 23 days, % of start",102%
same,"Stability in water solutions, assay","[4]; 5° C., Start",0.00698 mg base/ml
same,"Stability in water solutions, assay","[4]; 5° C., Start, % of start",(100%)
same,"Stability in water solutions, assay","[4]; 60° C., 2 days, % of start",105%
same,"Stability in water solutions, assay","[4]; 60° C., 8 days, % of start",104%
same,"Stability in water solutions, assay","[4]; 60° C., 14 days, % of start",106%
same,"Stability in water solutions, assay","[4]; 60° C., 23 days, % of start",102%
same,"Stability in water solutions, assay","[4]; 60° C., Start",0.00698 mg base/ml
same,"Stability in water solutions, assay","[4]; 60° C., Start, % of start",(100%)
same,"Stability in water solutions, assay","[4]; Dark RT, 8 days, % of start",94%
same,"Stability in water solutions, assay","[4]; Dark RT, 14 days, % of start",94%
same,"Stability in water solutions, assay","[4]; Dark RT, 23 days, % of start",95%
same,"Stability in water solutions, assay","[4]; Dark RT, Start",0.00698 mg base/ml
same,"Stability in water solutions, assay","[4]; Dark RT, Start, % of start",(100%)
same,"Stability in water solutions, assay","[4]; daylight RT, 8 days, % of start",95%
same,"Stability in water solutions, assay",[4]; [6],94%
same,"Stability in water solutions, assay",[4]; [7],91%
same,"Stability in water solutions, assay","[4]; daylight RT, Start",0.00698 mg base/ml
same,"Stability in water solutions, assay","[4]; daylight RT, Start, % of start",(100%)
same,"stability in pure water solution, comparison in words","[4]; room temperature, pH not adjusted",less stable than Form A
same,HPLC Purity (100% - related substances),"[5]; 90° C., 2 days",99.9%
same,HPLC Purity (100% - related substances),"[5]; 90° C., 8 days",99.9%
same,HPLC Purity (100% - related substances),"[5]; 90° C., 14 days",99.9%
same,HPLC Purity (100% - related substances),"[5]; 90° C., 21 days",99.9%
same,HPLC Purity (100% - related substances),"[5]; 90° C., 30 days",99.9%
same,HPLC Purity (100% - related substances),"[5]; 90° C., Start",100%
same,HPLC Purity (100% - related substances),"[5]; daylight, RT, 8 days",99.9%
same,HPLC Purity (100% - related substances),"[5]; daylight, RT, 14 days",99.9%
same,HPLC Purity (100% - related substances),"[5]; daylight, RT, 21 days",99.9%
same,HPLC Purity (100% - related substances),"[5]; daylight, RT, 30 days",99.9%
same,HPLC Purity (100% - related substances),"[5]; daylight, RT, Start",100%
same,stability of bulk substance in words,[5]; in daylight and at 90° C.,very stable
